Data taken from patent US12378543B2, “Compositions for hemolysis and coagulation regulation and stabilization of extracellular vesicles” (STRECK LLC, priority 2017, dated 2025).

Test system: cell-free RNA (cfRNA)
Experiment: Total cfRNA in plasma after whole blood storage (Qubit RNA HS fluorometric analysis)
Conditions: preservative added singly on ACD-A background, 7 days at room temperature, FIG. 6
From the text: Plasma was isolated and cfRNA extracted using a commercially available kit (Qiagen, QIAamp Circulating Nucleic Acid Isolation Kit). Resultant cfRNA was quantified using the Qubit RNA HS Assay (Invitrogen). Results are the mean with standard deviation from 3 healthy donors.
The working hypothesis for the container (e.g., blood collection tube) that comprises a composition of the disclosure was that cell-free RNA (cfRNA), including messenger RNA, micro-RNA, non-coding RNA, etc., is stable in blood plasma via encapsulation within extracellular vesicles (EVs). Thus, because aspects of the disclosure are directed to stabilizing draw-time concentrations of cfRNA, the goal was to maintain the initial concentration of EVs. […] In the experiments, the functional components of the RNAx BCT are the preservatives imidazolidinyl urea (IDU) and α-cyclodextrin. The experiments were designed to test whether each of the foregoing components acted singly (additive effect) or whether the combination provided an unexpected, more pronounced outcome (synergistic effect).
On the background of the basal anti-coagulant, ACD-A, each of the preservatives (i.e., IDU and α-cyclodextrin) was added singly (at the same concentration utilized in the RNAx BCT) or together. […]

OC[C@H]1O[C@@H]2O[C@H]3[C@H](O)[C@@H](O)[C@@H](O[C@H]4[C@H](O)[C@@H](O)[C@@H](O[C@H]5[C@H](O)[C@@H](O)[C@@H](O[C@H]6[C@H](O)[C@@H](O)[C@@H](O[C@H]7[C@H](O)[C@@H](O)[C@@H](O[C@H]1[C@H](O)[C@H]2O)O[C@@H]7CO)O[C@@H]6CO)O[C@@H]5CO)O[C@@H]4CO)O[C@@H]3CO [α-cyclodextrin]
effect on increases in total cfRNA levels (in words): did limit increases in levels of cfRNA
